In paper PMC5786060, “Discovery of new molecular entities able to strongly interfere with Hsp90 C-terminal domain” (Scientific Reports, 2018):
Read-outs that look alike come from different tables or passages of the source.

Columns and labels:
[1] = system: U937 (human monocytic cell line from histiocytic lymphoma); assay: Anti-proliferation MTT assay, U937 cells; format: cell-based; details: for IC50: Homo sapiens
Experimental: (§1) Jurkat and U937 (2 × 10^4 /well) cells were seeded in triplicate in 96 well−plates and incubated for the 24 h or 48 h in the absence or presence of different concentrations of compounds 1, 4–5, 7–15, 21–22, 26 (concentration between 10 µM to 100 µM) or Novobiocin (concentration between 50 µM to 500 µM). Stock solutions of compounds (100 mM in DMSO) were diluted just before addition to the sterile culture medium and the final concentration of DMSO was 0.15% (v/v).
(§2) The number of viable cells was determined by using a […] (MTT, Sigma-Aldrich) conversion assay, according to the method described by Terracciano et al. 2016[27],[28]. After the indicated treatment, the cells were incubated for additional 3 h at 37 °C, with 25 µL of MTT (5 mg/mL in PBS). The formazan crystals thus formed were dissolved in 100 μl of buffer containing 50% (v/v) N,N-dimethylformamide, 20% SDS (pH 4.5). The absorbance was read at 570 nm using an Absorbance Microplate Reader (Titertek multiskan MCC7340, LabSystems, Vienna, VA, USA) equipped with a 620 nm filter. The cell population growth inhibition was also tested by cytometric counting (trypan blu exclusion). IC50 values were calculated from cell viability dose−response curves and defined as the concentration resulting in 50% inhibition of cell survival, compared to control cells treated with DMSO (see Supplementary Material Tables S2 and S3).

recombinant human Hsp90α = target: T1, recombinant human Hsp90α (Homo sapiens, UniProt P07900); assay: SPR binding to immobilized recombinant Hsp90α; details: Biacore 3000, immobilized full length Hsp90α, 25 °C, 1:1 Langmuir model, read-out: KD (nM) ± SD
T1 construct: purchased Abcam
Experimental: Recombinant human Hsp90α was purchased from Abcam (Abcam, Cambridge, UK). […] SPR analyses were carried out according to our previously published data[25]–[28],[32],[50]. Surface Plasmon Resonance Spectroscopy (SPR) analyses were performed to determine binding of various molecules to full length Hsp90α using a Biacore 3000 optical biosensor equipped with research-grade CM5 sensor chips (GE Healthcare). Hsp90α was coupled to the surface of a CM5 sensor chip using standard amine-coupling protocols, according to the manufacturer’s instructions.
The protein (100 µg mL^−1 in 10 mM CH3COONa, pH 5.0) was immobilized on individual sensor chip surfaces at a flow rate of 5 µL min^−1 to obtain densities of 8–12 kRU. For the experiments a recombinant Hsp90α surface, a BSA surface and one unmodified reference surface were prepared for simultaneous analyses. […] For each molecule a six-point concentration series were set up, spanning […], and for each sample the complete binding study was performed using triplicate aliquots. Changes in mass, due to the binding response, were recorded as resonance units (RU). To obtain the dissociation constant (KD) (Table 1), these responses were fit to a 1:1 Langmuir binding model by nonlinear regression using the BiaEvaluation software program provided by GE Healthcare. Simple interactions were suitably fitted to a single-site bimolecular interaction model (A + B = AB), yielding a single KD. (Table 1). SPR experiments were performed at 25 °C, using a flow rate of 50 µL min^−1, with 60 s monitoring of association and 300 s monitoring of dissociation.

[2] = system: Jurkat (human leukemic T lymphocyte); assay: Anti-proliferation MTT assay, Jurkat cells; format: cell-based; details: for IC50: Homo sapiens
Experimental: as §1, §2

[3] = system: PHA-stimulated human peripheral blood mononuclear cells (PBMC); assay: Cytotoxicity on PHA-stimulated PBMC by trypan blue count; format: cell-based; details: 25 µM, DMSO control about 5 ± 0.9%
Experimental: Human peripheral blood mononuclear cells (PBMC), induced to proliferate by phytohemagglutinin (PHA) (10 µg/ml), were used to evaluate cytotoxic effects by trypan blue count of compound 7 and 10. Human peripheral blood mononuclear cells (PBMC) were isolated from buffy coats of healthy donors (kindly provided by the Blood Center of the Hospital of Battipaglia, Salerno, Italy) by using standard Ficoll−Hypaque gradients.

Jurkat cells = assay: Cell cycle distribution / hypodiploid cells by PI flow cytometry; format: cell-based, human; details: for hypodiploid cells (subG0/G1 DNA content): 100 µM; for hypodiploid cells: 200 µM
Experimental: Cell DNA content was measured by propidium iodide (PI) incorporation into permeabilized cells, as described by Nicoletti et al. Briefly, the Jurkat cells were treated for 24 h or 48 h with compounds used at the different concentrations. In particular, the compounds 7 or 10 were used at 25 or 50 µM, novobiocin was used at 50, 100 or 200 µM. The treated cells were harvested and incubated with a PI solution (0.1% sodium citrate, 0.1% Triton X-100 and 50 μg/ml of prodium iodide, Sigma-Aldrich, 10 μg/ml Rnase A) for 30 min at room temperature.
The cells were analyzed using FACScalibur flow cytometry (Becton Dickinson, San Josè, CA. The distribution of cells in cell cycle phases was determined using ModFit LT analysis software (Becton Dickinson). The percentage of apoptotic cells is represented as the percentage of hypodiploid cells accumulated at the sub G0/G1 phase of the cell cycle and was quantified using the CellQuest software (Becton Dickinson). Results were expressed as a mean ± SD of three experiments performed in triplicate.

[4] = system: Hsp90-dependent client proteins Raf-1, p-Akt, p-Erk and p53; Hsc70, Hsp90, Hsp70 in Jurkat cells; assay: Western blot of Hsp90 client proteins and heat shock proteins; format: cell-based, human; details: 24 h; for degradation of Hsp90-dependent client proteins Raf-1, p-Akt, p-Erk and p53 / reduction of Hsc70: 25 and 50 µM, western blot densitometry
Experimental: Following the treatment, the cells were trypsinized and homogenized on ice in RIPA lysis buffer (50 mM Hepes, 10 mM EDTA, 150 mM NaCl, 1% NP-40, 0.5% sodium deoxycholate, 0.1% SDS, pH 7.4), supplemented with protease inhibitors cocktail (Sigma-Aldrich). After centrifugation at 4 °C to removed cell debris, an equal protein amount (40 µg) was separated by SDS-PAGE under denatured reducing conditions and was then transferred to nitrocellulose membranes. The blots were blocked with 3% BSA and were incubated at 4 °C overnight with primary antibodies: anti-Hsp 70; anti-Hsp 90α/ß, anti-Raf1, anti-pAkt, anti Erk, anti pErk, anti-p53, anti Hsc70, anti GRP94, anti cyclin A antibodies (Santa Cruz Biotechnology, Inc., Delaware, CA, USA), anti-actin antibody (Sigma-Aldrich) anti CDK2, anti Cyclin D1 and anti CDK4 antibodies (Cell Signaling Technology, Leiden, Netherlands). Appropriate peroxidase-conjugate secondary antibodies were used to detect primary antibodies, and enzymatic signals were visualized by chemiluminescence reagent Pierce ECL (Thermo Scientific, Rockford, IL, USA). Quantitative densitometry analyses were performed using a ImageQuant LAS 4000 system (GE Healthcare Life Sciences,NY, USA).

[5] = U-937, 24 h, read-out: IC50 (µM) 24h
[6] = U-937, 48 h, read-out: IC50 (µM) 48h

Row | IC50 [1, 5] [µM] | IC50 [1, 6] [µM] | Kd (recombinant human Hsp90α) [nM] | IC50 ([2]; 24 h, read-out: IC50 (µM) 24h) [µM] | IC50 ([2]; 48 h, read-out: IC50 (µM) 48h) [µM] | Structure (SMILES) | also measured
1 |  |  | 2.4 ± 0.6 |  |  | O=C(CNc1ccc(F)cc1)Nc1ncc(Cc2ccccc2F)s1 [Compound 8] | IC50 (µM) 24h [1]: not active; IC50 (µM) 48h [1]: not active; IC50 (µM) 24h ([2]; 24 h): not active; IC50 (µM) 48h ([2]; 48 h): not active
2 | 52 | 50 | 20.8 ± 8.7 | 26.1 | 23.5 | O=C(CCCCCn1c(=O)[nH]c2ccccc2c1=O)Nc1ccc(Br)cc1F [Compound 10] | non-viable cells percentage ([3]; 24 h): about 7 ± 1.3%; non-viable cells percentage ([3]; 48 h): ~9 ± 1.8%; hypodiploid cells (subG0/G1 DNA content) (Jurkat cells; 48 h): 10%; cell cycle phase in which cells are arrested (Jurkat cells; after 24 h, retained after 48 h): S phase; degradation of Hsp90-dependent client proteins Raf-1, p-Akt, p-Erk and p53 [4]: 50–60%; reduction of Hsc70 [4]: 15–20%
3 | > 100 | > 100 | 95.1 ± 5.7 | > 100 | > 100 | O=C(CCCCCn1c(=O)[nH]c2ccccc2c1=O)NCCN1CCOCC1 [Compound 12] | 
4 | 98.3 | 97 | 300 ± 19.3 | 56.8 | 54 | COC(=O)c1ccc(NC(=O)CCCCCn2c(=O)[nH]c3ccccc3c2=O)cc1 [Compound 13] | 
5 | > 100 | > 100 | 260 ± 8.4 | > 100 | > 100 | NC(=O)c1ccc(NC(=O)CCCCCn2c(=O)[nH]c3ccccc3c2=O)cc1 [Compound 14] | 
6 |  |  | 4.8 ± 2.9 |  |  | O=C1CCS(=O)(=O)N1c1ccc(S(=O)(=O)NCc2cccc3c2OCO3)cc1 [Compound 15] | IC50 (µM) 24h [1]: not active; IC50 (µM) 48h [1]: not active; IC50 (µM) 24h ([2]; 24 h): not active; IC50 (µM) 48h ([2]; 48 h): not active
7 |  |  | 4.1 ± 2.6 |  |  | CN(CCc1ccncc1)C(=O)c1ccc(N2C(=O)CCS2(=O)=O)cc1 [Compound 22] | IC50 (µM) 24h [1]: not active; IC50 (µM) 48h [1]: not active; IC50 (µM) 24h ([2]; 24 h): not active; IC50 (µM) 48h ([2]; 48 h): not active
8 | > 100 | > 100 | 25.7 ± 8.4 | > 100 | > 100 | O=C(c1ccc2c(c1)OCO2)N1CCC(c2nc3ccccc3[nH]2)CC1 [Compound 26] | 

The next lines start with the molecule.

Row | Structure (SMILES) | IC50 [1, 5] [µM] | IC50 [1, 6] [µM] | Kd (recombinant human Hsp90α) [nM] | IC50 ([2]; 24 h, read-out: IC50 (µM) 24h) [µM] | IC50 ([2]; 48 h, read-out: IC50 (µM) 48h) [µM] | also measured
9 | NC(=O)c1ccccc1NC(=O)CCCCCN1C(=O)c2ccccc2C1=O [Compound 1] | > 100 | > 100 | 1.5 ± 0.5 | > 100 | > 100 | 
10 | O=C1c2ccccc2C(=O)N1CCSc1ncnc2scc(-c3ccc(Cl)cc3)c12 [Compound 4] | > 100 | > 100 | 3.2 ± 1.1 | > 100 | > 100 | 
11 | Cc1cc(C)c2c(C)cc3nnc(SCCCN4C(=O)c5ccccc5C4=O)n3c2c1 [Compound 5] | 91.2 | 91.2 | 14.7 ± 9.4 | 100 | 98.3 | 
12 | COc1ccc(NCC(=O)Nc2ncc(Cc3ccc(Cl)c(Cl)c3)s2)cc1 [Compound 7] | 51.2 | 51 | 5.2 ± 3.8 | 25.1 | 22 | non-viable cells percentage ([3]; 24 h): about 6 ± 1.8%; non-viable cells percentage ([3]; 48 h): ~8 ± 1.5%; hypodiploid cells (subG0/G1 DNA content) (Jurkat cells; 48 h): 10%; degradation of Hsp90-dependent client proteins Raf-1, p-Akt, p-Erk and p53 [4]: 50–60%; reduction of Hsc70 [4]: 15–20%
13 | COc1ccc(NCC(=O)Nc2ncc(Cc3cccc4ccccc34)s2)cc1 [Compound 9] | 97.3 | 95.3 | 20.9 ± 9.5 | 90.2 | 85.5 | 
14 | O=C(CCCCCn1c(=O)[nH]c2ccccc2c1=O)CCCn1ccnc1 [Compound 11] | 90.1 | 90.3 | 79.3 ± 7.2 | 48.2 | 42.5 | 
15 | C=CCNC1=C2C[C@@H](C)C[C@H](OC)[C@H](O)[C@@H](C)/C=C(\C)[C@H](OC(N)=O)[C@@H](OC)/C=C\C=C(/C)C(=O)NC(=CC1=O)C2=O [Compound 17-AAG, 17-(Allylamino)-17-demethoxygeldanamycin, reference compound] |  |  |  |  |  | effect on Hsp90 and Hsp70 protein levels (heat shock response) ([4]; 17-AAG 2 µM, compounds 25 and 50 µM): significant up-regulation of Hsp90 and Hsp70 expression levels
16 | COC(=O)c1ccc(Oc2c[nH]nc2-c2ccc(OC)cc2O)cc1 [Compound 20] |  |  | 14.2 ± 4.9 |  |  | 
17 | COc1cc(/C=N/NC(=O)NC(=O)c2ccccc2Cl)ccc1O [Compound 21] |  |  | 13.2 ± 2.3 |  |  | IC50 (µM) 24h [1]: not active; IC50 (µM) 48h [1]: not active; IC50 (µM) 24h ([2]; 24 h): not active; IC50 (µM) 48h ([2]; 48 h): not active
18 | CO[C@@H]1[C@@H](OC(N)=O)[C@@H](O)[C@H](Oc2ccc3c(O)c(NC(=O)c4ccc(O)c(CC=C(C)C)c4)c(=O)oc3c2C)OC1(C)C [Novobiocin, reference compound] | 232 | 190 |  | 171 | 150 | hypodiploid cells (Jurkat cells; 24 h): 14%; hypodiploid cells (Jurkat cells; 48 h): 30%; effect on cell cycle progression (Jurkat cells; 50 and 100 µM, 24 or 48 h): did not affect cell cycle progression
